Reference: ChEMBL document CHEMBL3044951, “Synthesis and antimicrobial activity of dimethyl- and trimethyl-substituted phosphonium salts with alkyl chains of various lengths” (1994)
Calls of active or inactive are those of the source. The calls are words filed in the database; no cut-off is given here.

Assays:
Trichoderma harzianum = assay: Antifungal activity against Trichoderma harzianum by spread plate method; type: functional
Staphylococcus aureus [1] = assay: Bacteriostatic activity against methicillin-susceptible Staphylococcus aureus 209P by spread plate method; type: functional
Penicillium citrinum = assay: Antifungal activity against Penicillium citrinum ATCC 9849 by spread plate method; type: functional
Pseudomonas aeruginosa = assay: Antibacterial activity against Pseudomonas aeruginosa ATCC 27853 by spread plate method; type: functional
Escherichia coli [2] = assay: Antibacterial activity against Escherichia coli NIHJ by spread plate method; type: functional
Debaryomyces hansenii = assay: Antifungal activity against Candida famata IFO 0380 by spread plate method; type: functional
Geotrichum candidum = assay: Antifungal activity against Galactomyces geotrichum IFO 6454 by spread plate method; type: functional
Staphylococcus aureus [3] = assay: Bacteriostatic activity against methicillin-resistant Staphylococcus aureus by spread plate method; type: functional
Escherichia coli [4] = assay: Bactericidal activity against Escherichia coli IFO 3806 assessed as log10 reduction in viable cell count at 280 uM after 30 to 120 min by agar dilution test; type: functional, organism-based
Klebsiella aerogenes = assay: Antibacterial activity against Enterobacter aerogenes by spread plate method; type: functional
Staphylococcus aureus [5] = assay: Bacteriostatic activity against methicillin-susceptible Staphylococcus aureus IFO 12732 by spread plate method; type: functional
Escherichia coli [6] = assay: Antibacterial activity against Escherichia coli IFO 3806 by spread plate method; type: functional
Rhizopus stolonifer = assay: Antifungal activity against Rhizopus stolonifer ATCC 6227 by spread plate method; type: functional
Bacillus spizizenii = assay: Bacteriostatic activity against Bacillus subtilis subsp. spizizenii ATCC 6633 by spread plate method; type: functional
Staphylococcus aureus [7] = assay: Bactericidal activity against methicillin-susceptible Staphylococcus aureus IFO 12732 assessed as log10 reduction in viable cell count at 280 uM after 30 to 120 min by agar dilution test; type: functional, organism-based
Staphylococcus aureus [8] = assay: Bactericidal activity against methicillin-susceptible Staphylococcus aureus IFO 12732 assessed as log10 reduction in viable cell count at 28 uM up to 120 min by agar dilution test; type: functional
Escherichia coli [9] = assay: Bactericidal activity against Escherichia coli IFO 3806 assessed as log10 reduction in viable cell count at 2.8 to 280 uM after 30 to 120 min by agar dilution test; type: functional, organism-based
Escherichia coli [10] = assay: Bactericidal activity against Escherichia coli IFO 3806 assessed as log10 reduction in viable cell count at 28 to 280 uM after 30 to 120 min by agar dilution test; type: functional, organism-based
Staphylococcus aureus [11] = assay: Bactericidal activity against methicillin-susceptible Staphylococcus aureus IFO 12732 assessed as log10 reduction in viable cell count at 280 uM up to 30 min by agar dilution test; type: functional, organism-based
Staphylococcus aureus [12] = assay: Bactericidal activity against methicillin-susceptible Staphylococcus aureus IFO 12732 assessed as log10 reduction in viable cell count at 2.8 to 280 uM after 30 to 120 min by agar dilution test; type: functional, organism-based
Escherichia coli [13] = assay: Bactericidal activity against Escherichia coli IFO 3806 assessed as log10 reduction in viable cell count at 0.28 to 280 uM up to 30 min by agar dilution test; type: functional, organism-based
Staphylococcus aureus [14] = assay: Bactericidal activity against methicillin-susceptible Staphylococcus aureus IFO 12732 assessed as log10 reduction in viable cell count at 28 uM up to 60 min by agar dilution test; type: functional, organism-based
Staphylococcus aureus [15] = assay: Bactericidal activity against methicillin-susceptible Staphylococcus aureus IFO 12732 assessed as log10 reduction in viable cell count at 0.28 to 280 uM up to 30 min by agar dilution test; type: functional, organism-based
Staphylococcus aureus [16] = assay: Bactericidal activity against methicillin-susceptible Staphylococcus aureus IFO 12732 assessed as log10 reduction in viable cell count at 2.8 uM up to 30 min by agar dilution test; type: functional, organism-based
Staphylococcus aureus [17] = assay: Bactericidal activity against methicillin-susceptible Staphylococcus aureus IFO 12732 assessed as log10 reduction in viable cell count at 0.28 uM by agar dilution test; type: functional, organism-based
Escherichia coli [18] = assay: Bactericidal activity against Escherichia coli IFO 3806 assessed as log10 reduction in viable cell count at 2.8 uM up to 120 min by agar dilution test; type: functional
Staphylococcus aureus [19] = assay: Bactericidal activity against methicillin-susceptible Staphylococcus aureus IFO 12732 assessed as log10 reduction in viable cell count at 2.8 uM up to 120 min by agar dilution test; type: functional

Compound | MIC (Trichoderma harzianum) | MIC (Staphylococcus aureus [1]) | MIC (Penicillium citrinum) | MIC (Pseudomonas aeruginosa) | MIC (Escherichia coli [2]) | MIC (Debaryomyces hansenii) | MIC (Geotrichum candidum) | MIC (Staphylococcus aureus [3]) | MIC (Klebsiella aerogenes) | MIC (Staphylococcus aureus [5]) | MIC (Escherichia coli [6]) | MIC (Rhizopus stolonifer) | MIC (Bacillus spizizenii) | further results
CCCCCCCCCC[P+](C)(C)C.[Cl-] [DECYLTRIMETHYLPHOSPHONIUM CHLORIDE] | > 200 µg/mL | 3.13 µg/mL | > 200 µg/mL | > 200 µg/mL | 200 µg/mL | > 200 µg/mL | > 200 µg/mL | 50 µg/mL | > 200 µg/mL | 3.13 µg/mL | 200 µg/mL | > 200 µg/mL | 50 µg/mL | Activity (Escherichia coli [4]): inactive; Activity (Staphylococcus aureus [7]): inactive
CCCCCCCCCCCCCCCCCC[P+](C)(C)CCCCCCCCCCCCCCCCCC.[Cl-] [DIOCTADECYLDIMETHYLPHOSPHONIUM CHLORIDE] | > 200 µg/mL | 100 µg/mL | > 200 µg/mL | > 200 µg/mL | > 200 µg/mL | > 200 µg/mL | > 200 µg/mL | > 200 µg/mL | > 200 µg/mL | 100 µg/mL | > 200 µg/mL | > 200 µg/mL | > 200 µg/mL | Activity (Staphylococcus aureus [8]): >99.99%; Activity (Escherichia coli [9]): Active
CCCCCCCCCCCCCC[N+](C)(C)C.[Cl-] | – | – | – | – | – | – | – | – | – | – | – | – | – | Activity (Staphylococcus aureus [8]): >99.9%; Activity (Escherichia coli [10]): Active; Activity (Staphylococcus aureus [11]): Active
CCCCCCCCCC[P+](C)(C)CCCCCCCCCC.[Cl-] [DIDECYLDIMETHYLPHOSPHONIUM CHLORIDE] | 200 µg/mL | 0.78 µg/mL | 100 µg/mL | 200 µg/mL | 3.13 µg/mL | 1.56 µg/mL | 3.13 µg/mL | 0.78 µg/mL | 3.13 µg/mL | 0.78 µg/mL | 3.13 µg/mL | > 200 µg/mL | 0.78 µg/mL | Activity (Staphylococcus aureus [12]): Active; Activity (Escherichia coli [9]): Active
CCCC[P+](CCCC)(CCCC)Cc1ccc(CC)cc1.[Cl-] [TRIBUTYL(4-ETHYLBENZYL)PHOSPHONIUM CHLORIDE] | > 200 µg/mL | 50 µg/mL | > 200 µg/mL | > 200 µg/mL | > 200 µg/mL | > 200 µg/mL | > 200 µg/mL | 50 µg/mL | > 200 µg/mL | 50 µg/mL | > 200 µg/mL | > 200 µg/mL | 100 µg/mL | –
CCCCCCCCCCCCCC[P+](C)(C)C.[Cl-] [TETRADECYLTRIMETHYLPHOSPHONIUM CHLORIDE] | 200 µg/mL | 0.2 µg/mL | 200 µg/mL | 200 µg/mL | 12.5 µg/mL | 200 µg/mL | 50 µg/mL | 1.56 µg/mL | 100 µg/mL | 0.2 µg/mL | 12.5 µg/mL | 200 µg/mL | 0.2 µg/mL | Activity (Escherichia coli [13]): Active; Activity (Staphylococcus aureus [14]): Active; Activity (Escherichia coli [10]): Active; Activity (Staphylococcus aureus [15]): Active
CCCCCCCCCC[P+](C)(C)Cc1ccc(CC)cc1.[Cl-] [DECYL(4-ETHYLBENZYL)DIMETHYLPHOSPHONIUM CHLORIDE] | > 200 µg/mL | 0.78 µg/mL | 200 µg/mL | 200 µg/mL | 12.5 µg/mL | 12.5 µg/mL | 6.25 µg/mL | 1.56 µg/mL | 25 µg/mL | 0.78 µg/mL | 12.5 µg/mL | > 200 µg/mL | 1.56 µg/mL | –
CCCCCCCCCCCCCCCCCC[N+](C)(C)C | – | – | – | – | – | – | – | – | – | – | – | – | – | Activity (Staphylococcus aureus [14]): Active
CCCCCCCCCCCCCCCCCC[P+](C)(C)C.[Cl-] [OCTADECYLTRIMETHYLPHOSPHONIUM CHLORIDE] | > 200 µg/mL | 0.78 µg/mL | > 200 µg/mL | > 200 µg/mL | > 200 µg/mL | 12.5 µg/mL | > 200 µg/mL | 1.56 µg/mL | > 200 µg/mL | 0.78 µg/mL | > 200 µg/mL | > 200 µg/mL | 3.13 µg/mL | Activity (Staphylococcus aureus [16]): Active; Activity (Escherichia coli [13]): Active; Activity (Staphylococcus aureus [17]): inactive; Activity (Escherichia coli [18]): >99.9%
CCCCCCCCCCCCCC[P+](C)(C)CCCCCCCCCCCCCC.[Cl-] [DITETRADECYLDIMETHYLPHOSPHONIUM CHLORIDE] | > 200 µg/mL | 12.5 µg/mL | > 200 µg/mL | > 200 µg/mL | > 200 µg/mL | > 200 µg/mL | > 200 µg/mL | 200 µg/mL | > 200 µg/mL | 12.5 µg/mL | > 200 µg/mL | > 200 µg/mL | 100 µg/mL | Activity (Staphylococcus aureus [19]): >99.999%; Activity (Staphylococcus aureus [14]): Active; Activity (Staphylococcus aureus [11]): Active; Activity (Escherichia coli [9]): Active
CCCCCCCCCC[N+](C)(C)CCCCCCCCCC | – | – | – | – | – | – | – | – | – | – | – | – | – | Activity (Escherichia coli [18]): inactive
CCCCCCCCCCCCCC[P+](C)(C)Cc1ccc(CC)cc1.[Cl-] [(4-ETHYLBENZYL)DIMETHYL(TETRADECYL)PHOSPHONIUM CHLORIDE] | > 200 µg/mL | 1.56 µg/mL | > 200 µg/mL | 200 µg/mL | 200 µg/mL | 6.25 µg/mL | 6.25 µg/mL | 1.56 µg/mL | 200 µg/mL | 1.56 µg/mL | 200 µg/mL | > 200 µg/mL | 1.56 µg/mL | –
CCCCCCCCCCCCCCCCCC[P+](C)(C)Cc1ccc(CC)cc1.[Cl-] [(4-ETHYLBENZYL)DIMETHYL(OCTADECYL)PHOSPHONIUM CHLORIDE] | > 200 µg/mL | 12.5 µg/mL | > 200 µg/mL | > 200 µg/mL | > 200 µg/mL | > 200 µg/mL | > 200 µg/mL | 25 µg/mL | > 200 µg/mL | 12.5 µg/mL | > 200 µg/mL | > 200 µg/mL | 25 µg/mL | –
